In PubChem BioAssay AID1996:
Values after ≈ are worked out from the molar mass of the structure shown.

conditions: buffer; pH 7.4; 200.0 µM

Compound | solubility kinetic [µg/mL]
O=C(Cc1ccccc1)Nc1ccc(NC(=O)c2ccccc2)nc1 | 5.2 (≈ 15.7 µM)
Cc1ccc(CN2CCN(Cc3ccc(O)cc3)CC2CCO)o1 (stereo not given) | > 49.6
CCCN1CNC(=S)N(c2ccc(C)cc2C)C1 | > 39.5
Cc1ccc(C(=O)c2ccccc2C(=O)OCC(=O)N2CCCC2)cc1 | > 52.7
O=C(CNC(=O)c1ccc(N2CCCC2=O)cc1)Nc1ccc(F)c(F)c1F | 5.5 (≈ 14.1 µM)
COc1ccc(CNc2ccccn2)c(O)c1 | > 34.5
CC12CCC(=O)N1C(C(=O)NCc1ccccc1F)CS2 (stereo not given) | 44.7 (≈ 145 µM)
Cc1nc2cc(NS(=O)(=O)c3ccccc3F)ccc2s1 | 35.6 (≈ 110 µM)
COc1ccc(CCC(C)NCc2ccccc2OC)cc1 (stereo not given) | 32 (≈ 107 µM)
O=C(Nc1scc(-c2ccccc2)c1C(=O)O)c1ccccc1F | > 51.2
COc1ccc(CC(=O)NCc2csc(-c3cccs3)n2)cc1OC | 54.6 (≈ 146 µM)
Cc1cc(C(=O)COc2ccccc2C(N)=O)c(C)n1C1CC1 | 7 (≈ 22.4 µM)
CC(=O)N/C(N)=N/c1nc2cc([N+](=O)[O-])ccc2o1 | 3.8 (≈ 14.4 µM)
Nc1ccc(-c2nc3cc(N)ccc3o2)cc1 | > 33.8
Cc1ccc2nc(C)c3c(c2c1)N(c1ccccc1)CC3 | > 41.2
CCN(C(=O)c1cccnc1SC)C12CC3CC(CC(C3)C1)C2 | 2.3 (≈ 6.96 µM)
O=C(NC(=S)Nc1ccc(Cl)c(C(=O)O)c1)c1ccco1 | > 48.7
O=C(c1ccc2[nH]c(=O)c(=O)[nH]c2c1)N1CCc2ccccc21 | 43 (≈ 140 µM)
Cc1nc(-c2cc(-c3ccc(Cl)cc3)no2)cs1 | < 0.3
O=C(NNC(=S)NC(=O)c1ccccc1)c1cccnc1 | > 45.1
CC(=O)OCC[N+](C)(C)C.[Cl-] | > 27.2
CCn1cc(C=C2C(=O)N(C)C(=O)N(C)C2=O)c2ccccc21 | 1 (≈ 3.21 µM)
Cc1ccc(S(=O)(=O)Nc2cnc3ccccc3c2)cc1 | > 44.8
CN1CCCN(C(=O)c2ccc(Cl)cc2)CC1 | 32.9 (≈ 130 µM)

Compound | solubility kinetic [µg/mL]
CC(C)(C)C(=O)CSc1ncnc2sc3c(c12)CCC3 | 0.7 (≈ 2.28 µM)
COc1ccc2[nH]cc(C(=O)CN3CCCC(C)(C)C3)c2c1 | > 45.1
Cl.c1cc(CNC2C3CC4CC(C3)CC2C4)ccn1 (stereo not given) | 33.7
O=C(c1ccc(Cl)s1)N1CCN(S(=O)(=O)c2ccc(Cl)cc2)CC1 | 3.2 (≈ 7.89 µM)
O=C(CCc1cccc(Cl)c1)N1CCCC(Nc2ccccc2)C1 (stereo not given) | 27.4 (≈ 79.9 µM)
O=C(Nc1cccc(S(=O)(=O)N2CCCCC2)c1)C1COc2ccccc2O1 (stereo not given) | 6.6 (≈ 16.4 µM)
O=S(=O)(Nc1ccc(C(F)(F)F)cn1)c1ccccc1 | 45.3 (≈ 150 µM)
O=c1c2ccccc2nc(-c2ccccc2)n1-c1ccccc1O | 38.3 (≈ 122 µM)
Cc1ccc(NC(=O)CCC(=O)c2cccs2)cc1F | 4.3 (≈ 14.8 µM)
CCCNC(=O)Cn1sc2nc(C)cc(C)c2c1=O | > 41.9
COC(=O)c1ccc(COC(=O)CNC(=O)c2cccs2)cc1 | > 50
CCC(CC)C(=O)OCC(=O)Nc1cccc([N+](=O)[O-])c1 | 43 (≈ 146 µM)
Cc1c(O)ccc(C(=O)CN2CC(C)OC(C)C2)c1O (stereo not given) | > 41.9
O=c1[nH]c(=S)[nH]c2sc3c(c12)CCCCCC3 | 26.2 (≈ 98.4 µM)
C/C(=N\O)C(C)(C)Nc1ccc(Br)cc1 | > 40.7
O=Nc1[nH]c(=O)c(/C=C(\O)c2ccccc2)nc1NO | 33.8 (≈ 123 µM)
COc1ccc(N2CCN(C(=O)COCC(=O)O)CC2)cc1 | > 46.3
Cc1cc(S(=O)(=O)NCc2ccco2)c(C)cc1Cl | > 45
CCCCc1ncc(CN2CCN(Cc3ccc(C)cc3)C(CCO)C2)[nH]1 (stereo not given) | 49.1 (≈ 133 µM)
Cl.O=S(=O)(N1CCCCCC1)N1CCNCC1 | > 42.6
COc1ccc(NC(=O)Cn2cc(C(=O)C3CC3)c3ccccc32)cc1 | 0.5 (≈ 1.44 µM)
CC1CC(=O)N(C)c2cc([N+](=O)[O-])ccc2N1 (stereo not given) | > 35.3
COC(=O)CN(C#N)c1nc(N(C)C)nc(N(C)C)n1 | 31.2 (≈ 112 µM)
COCCNCC(=O)N1c2ccccc2Sc2ccccc21 | 38.1 (≈ 121 µM)

Compound | solubility kinetic [µg/mL]
COc1cc(NC(=O)C2C3CCC(O3)C2C(=O)O)cc(OC)c1 (stereo not given) | > 48.2
COC(=O)C(Cc1c[nH]c2ccccc12)NC(=O)C1CC1 (stereo not given) | > 42.9
Cn1cccc1C(=O)OCC(=O)NCCc1ccccc1 | > 42.9
COc1ccc(NC(=O)c2ccc3c(c2)OCCO3)cc1OC | 10.3 (≈ 32.7 µM)
CCOC(=O)C1=C(COC(=O)c2cccnc2SC)NC(=O)NC1C (stereo not given) | > 54.8
COc1ccc(-c2nc(N)ncc2-c2ccc(Cl)cc2)c(O)c1 | < 0.2
Cc1ccc(NC(=O)C2CC(=O)N(Cc3ccco3)C2)cc1 (stereo not given) | 39.7 (≈ 133 µM)
CCn1c(=O)c2ccccc2n(Cc2ccccc2C)c1=O | 3.1 (≈ 10.5 µM)
c1ccc2[nH]c(-c3cscn3)nc2c1 | > 30.2
O=C(Nc1cccc([N+](=O)[O-])c1)N1CCCc2ccccc21 | 34.6 (≈ 116 µM)
CC(C)Cc1ccc(C(C)NC(=O)c2ccc(=O)[nH]c2)cc1 (stereo not given) | 10 (≈ 33.5 µM)
O=C(COC(=O)COc1ccc(Cl)cc1Cl)NC1CCS(=O)(=O)C1 (stereo not given) | > 59.4
Nc1ccc2c(c1)Oc1ccccc1C=C2 | 12.3 (≈ 58.8 µM)
O=C(Nc1ccc(S(=O)(=O)N2CCCC2)cc1)C1CCCCC1 | 13.7 (≈ 40.7 µM)
COc1ccc(OC)c(-c2cc(-c3cccnc3)nc(N)c2C#N)c1 | 1.7 (≈ 5.11 µM)
CCC(C)c1c(O)nc(SCC(=O)N2CCCCC2)[nH]c1=O (stereo not given) | > 48.8
O=C(NC1CCC(O)CC1)c1ccccc1OCc1ccc(F)cc1 (stereo not given) | 46.4 (≈ 135 µM)
Cc1nc2ccccc2c2oc(C(=O)N3CC(C)CC(C)C3)cc12 (stereo not given) | 35.5 (≈ 110 µM)
COc1ccc(NC(=O)CN2C(=O)COc3ccc(C)cc32)cc1 | 3.3 (≈ 10.1 µM)
Cn1c(=NC(=O)COc2ccccc2)sc2cccc(F)c21 | < 0.3
N#CCCN(C(=O)COC(=O)c1cc(=O)[nH]c2ccccc12)c1ccccc1 | > 56.3
O=C1Nc2ccccc2/C1=C/c1ccnc2ccccc12 | 3.5 (≈ 12.9 µM)
O=C(CSc1cccs1)Nc1ccc(Cl)cc1 | 36.5 (≈ 129 µM)
CCN1C/C(=N\S(=O)(=O)/N=C2\CN(CC)C(=O)N2CC)N(CC)C1=O | > 55.9

Compound | solubility kinetic [µg/mL]
O=S(=O)(NC1CC1)c1ccc(F)c(F)c1 | > 35
Cc1csc(NC(=O)c2cccc([N+](=O)[O-])c2C(=O)O)n1 | > 46.1
O=C(Cc1ccc(F)cc1)Nc1ccccc1N1CCCC1 | 34.1 (≈ 114 µM)
S=c1[nH]c2ccccc2n2c(=S)[nH]nc12 | > 35.1
CCOC(=O)N1CCN(C(=O)Cc2ccccc2[N+](=O)[O-])CC1 | > 48.2
Cc1nc(SCC(=O)N2CCCCC2)c2c(C)c(C)sc2n1 | 33.7 (≈ 100 µM)
Cc1ccc(C)c(NC(=O)CCC(=O)NN=C2CCCC2)c1 | > 45.2
CO[C@H]1O[C@H](C)[C@@H](O)C[C@H]1NC(=O)OCc1ccccc1 | > 44.3
O=C(NCCNC(=O)c1ccc(F)cc1)c1ccc(F)cc1 | 12.9 (≈ 42.4 µM)
O=C(NCC1CCCO1)c1cccc2ccccc12 (stereo not given) | > 38.3
COc1ccccc1N1C(N)=NC(N)=NC12CCCCC2.Cl | > 48.6
COC(OC)C1(C)C(C#N)=C(N)Oc2c1c(=O)oc1ccccc21 (stereo not given) | 5.3 (≈ 16.1 µM)
COc1ccc(Nc2cc(C)c3ccccc3n2)cc1 | 12.6 (≈ 47.7 µM)
CC(=O)Nc1ccc(OCC(=O)NCCc2ccccc2)cc1 | > 46.9
O=C(Nc1ccc(CN2CCS(=O)(=O)CC2)cc1)c1ccc(F)cc1 | 29.9 (≈ 82.5 µM)
O=[N+]([O-])c1cccc(N=Cc2sc3ccccc3c2O)c1 | < 0.3
Cc1cccc(OC(C)C(=O)Nc2nccs2)c1 (stereo not given) | 37.9 (≈ 144 µM)
NCCc1nnc(SCC(=O)Nc2cccc(Cl)c2)o1 | > 46.9
Cc1cc(C)cc(OCC(=O)Nc2nc(-c3cccnc3)cs2)c1 | 3.2 (≈ 9.43 µM)
COc1cc(OC)c(C(=O)Nc2cccnc2)cc1OC | > 43.2
CN1CCN(c2ncnc3scc(-c4ccccc4Cl)c23)CC1 | > 51.7
O=C1C(CCS(=O)c2ccccc2)C(=O)N(c2ccccc2)N1c1ccccc1 (stereo not given) | > 60.7
NS(=O)(=O)c1ccc(CNC(=O)c2cccnc2Cl)cc1 | 38.3 (≈ 118 µM)
Cc1cc(C)cc(NS(=O)(=O)Cc2ccccc2)c1 | 39.5 (≈ 143 µM)

Compound | solubility kinetic [µg/mL]
COc1cccc(C(O)c2nc3ccccc3n2C)c1 (stereo not given) | 28.9 (≈ 108 µM)
Cc1ccc(CN(Cc2ccco2)C(=O)c2ccco2)cc1 | 35.4 (≈ 120 µM)
O=C(Nc1ccc(Cl)c(Cl)c1)Nc1ccccn1 | < 0.2
COc1ccc(/C=C/C(=O)OCC(=O)NC2CCCCCC2)cc1OC | 7.1 (≈ 19.6 µM)
COc1ccc(NS(=O)(=O)c2cc(C(=O)N3CCCCCC3)ccc2C)cc1 | > 60.4
CCC(=O)OCC(=O)Nc1ncc(C(F)(F)F)cc1Cl | > 46.6
CC(=O)Nc1ccc(N=Cc2c(O)c3ccccc3oc2=O)cc1 | 3.8 (≈ 11.8 µM)
COc1ccc(NC(=S)NC(=O)C2CCCCC2)cc1 | < 0.3
CC(C)OCCCNc1ncnc2c1nc1n2CCCC1 | > 43.4
O=C(OCC(=O)c1ccc(Cl)s1)c1cncc(Br)c1 | 17.5 (≈ 48.5 µM)
O=c1cc(CSCc2ccc(Cl)cc2)[nH]c(=O)[nH]1 | 41.3 (≈ 146 µM)
Cc1cc(N2CCCC2)nc2ccccc12 | 31.6 (≈ 149 µM)
Cc1ccc(C(C)C)c(OCCN2CCc3ccccc3C2)c1.Cl | < 0.7
Cc1nc(-c2ccc(NC(=O)Cc3ccccc3)cc2)cs1 | 1 (≈ 3.24 µM)
CC(=O)c1c(C)[nH]c(C(=O)Nc2nccs2)c1C | 20.8 (≈ 79 µM)
COc1ccccc1NC(=S)NC(=O)Cc1ccccc1 | 0.5 (≈ 1.66 µM)
Fc1ccc(C2Nc3cccc4cccc(c34)N2)cc1 | 3.2 (≈ 12.1 µM)
NC(=S)N/N=C/c1c[nH]c2ccccc12 | > 32.7
CCCCN(C(=O)COC(=O)c1ccccc1)c1c(N)n(CCC)c(=O)[nH]c1=O | > 60.4
S=C(NCc1ccco1)NCc1ccccc1Cl | > 42.1
CN(CC(=O)Nc1ccc(C(N)=O)cc1)S(=O)(=O)c1ccc2c(c1)OCCO2 | 9.4 (≈ 23.2 µM)
O=C(OCC(=O)N1CCOCC1)c1cc(=O)[nH]c2ccccc12 | > 47.4
COC(=O)c1cc(S(=O)(=O)N(C)Cc2ccco2)c[nH]1 | > 44.7
CC(C)(C)NC(=O)c1ccccc1-c1nc2ccccc2s1 | 35.6 (≈ 115 µM)
